Reference: patent US20160143877A1, “COMPOSITION FOR SUPPRESSING ADIPOCYTE DIFFERENTIATION, FOR REDUCING FAT ACCUMULATION AND/OR FOR PROMOTING ADIPONECTIN SECRETION AND USAGE FOR SAID COMPOSITION” (PUBLIC UNIVERSITY CORPORATION OSAKA CITY UNIVERSITY, priority 2013, published 2016)

Tests used:
3T3-L1 cells [1] = assay: Adipocyte differentiation: glycerol-3-phosphate dehydrogenase (GPDH) activity of cells after differentiation induction; assay type: cell-based, Mouse; conditions: sesaminol 0.5 or 1.0 μg/ml during differentiation induction; ** p<0.01 vs control
Method: GPDH is a rate-limiting enzyme of triacylglycerol (TG; also referred to as triglyceride) synthesis in adipocytes. […] Thus GPDH activity of cells after differentiation induction was measured according to the method of Wise and Green (Wise, L. S. and Green, H., (1979) Participation of one isozyme of cytosolic glycerophosphate dehydrogenase in the adipose conversion of 3T3 cells. The Journal of Biological Chemistry, 254, 273-275). Cells used for the GPDH assay were obtained in the same manner as described in (1-1) and (1-2). As a control, cells were differentiated without addition of the sesaminol solution.
Adipocytes derived from 3T3-L1 cells on or after Day 8 of induction were washed twice with PBS. Cells were added with a buffer for enzymatic extraction (100 mM triethanolamine, 2.5 mM EDTA) (300 μl) and collected using a cell scraper. […]
To a test tube containing the buffer for enzymatic extraction (2800 μl) which was maintained at 28° C. in a water bath, 2-mercaptoethanol (final concentration: 0.1 mM), NADH (final concentration: 0.12 mM), dihydroxyacetone phosphate (DHAP: SIGMA) (final concentration: 0.2 mM) and a measurement sample (50 μl) were added and the absorbance was measured over 3 minutes at 340 nm. GPDH activity was calculated using an extinction coefficient of NADH (6.22 mM^−1cm^−1) on the basis of the change of absorbance per minute (NADH variation). […]

[2] = system: various cell lines used in Examples; assay: Toxicity and viability check of the sesaminol solution on the cell lines used; assay type: cell-based; conditions: sesaminol solution (3.0 mg/ml in DMSO) as used in Examples
Method: The highly concentrated sesaminol solution was dissolved in dimethyl sulphoxide (DMSO) to prepare a sesaminol solution (3.0 mg/ml) to be used in Examples.

3T3-L1 adipocytes [3] = assay: Fat (TG) accumulation in differentiated adipocytes, Oil red 0 staining and absorbance at 520 nm; assay type: cell-based, Mouse; conditions: sesaminol 0.5 or 1.0 μg/ml added to differentiated adipocytes, three days
Method: In the same manner as in (1-1) in Example 1, preadipocyte 3T3-L1 cells were cultured until they reached 80 to 90% confluence. Then the medium was replaced with DMEM containing differentiation inducing agents which were bovine insulin (0.2 μM, Wako Pure Chemical Industries, Ltd.), dexamethasone (0.25 μM, Wako Pure Chemical Industries, Ltd.) and 3-isobutyl-1-methylxanthine (0.5 mM, Wako Pure Chemical Industries, Ltd.) (this is referred to as “Day 0 of differentiation induction”). After two days, the medium was replaced with DMEM containing only insulin (0.2 μM). Thereafter, the medium was replaced with fresh DMEM every two days and induction of differentiation was completed on Day 8 of differentiation induction to obtain adipocytes.
To the obtained adipocytes, the sesaminol solution was added so as to obtain the final concentration of sesaminol of 0.5 or 1.0 μg/ml. As a control, cells were cultured without addition of the sesaminol solution. […] Cells were analysed under a microscope (OLYMPUS IX-70: Olympus Corporation) and photographed. […] After microscopic observation, cells were added with isopropanol (3 ml) to extract Oil red 0 staining solution and the resulting extract was measured for absorbance at 520 nm. According to the measured values, TG accumulations in cells were compared. […]

3T3-L1 cells [4] = assay: Adipocyte differentiation: TG accumulation by Oil red 0 staining, sesaminol added during differentiation induction; assay type: cell-based, Mouse; conditions: read after Day 8
Method: Preadipocytes, when differentiated into adipocytes, intracellularly accumulate lipid droplets containing TG and the like. In the present Example, sesaminol was added to preadipocyte during induction of differentiation and intracellular TG after completion of induction was stained with an azo dye, Oil red 0, to evaluate an effect of sesaminol on adipocyte differentiation. Mouse fibroblast cell line 3T3-L1 (Japan Health Sciences Foundation) were used as preadipocytes. 3T3-L1 cells were inoculated at a concentration of 1.0×10^5 to 1.0×10^6 cells/ml and cultured until they reached 80 to 90% confluence in a 5% CO2 incubator at 37° C. The culture medium used was Dulbecco's modified Eagle's medium (DMEM: Nissui Pharmaceutical Co., Ltd.) containing 10% fetal bovine serum (FBS: Nichirei Biosciences, Inc.), penicillin (50 units/ml, Meiji Co., Ltd.) and streptomycin ([…], Meiji Co., Ltd.). […] After washing, cells were analysed under a microscope (OLYMPUS IX-70: Olympus Corporation) and photographed.

3T3-L1 adipocytes [5] = assay: Adiponectin expression level in adipocytes by SDS-PAGE and western blotting; assay type: cell-based, Mouse; conditions: sesaminol 0.5 or 1.0 μg/ml added to differentiated adipocytes, three days
Method: Various physiologically active adipocytokines are secreted from adipocytes. Among these adipocytokines, adiponectin is known to improve insulin resistance and prevent atherosclerosis. In the present Example, the profile of adiponectin secretion after addition of sesaminol to adipocytes was analysed by SDS-PAGE and western blotting.
In the same manner as in (1-1) in Example 1, preadipocyte 3T3-L1 cells were cultured until they reached 80 to 90% confluence. […]
The sesaminol solution was added so as to obtain the final concentration of sesaminol of 0.5 or 1.0 μg/ml in adipocytes. […] An aliquot of the collected supernatant was subjected to protein quantification using Serva Blue G (Serva Electrophoresis GmbH) based on the absorbance at 595 nm in order to calculate the amount of sample applied to electrophoresis.
Equal volumes of the supernatant containing cell lysate and a sample buffer were mixed to prepare a sample for electrophoresis. […] The membrane was then subjected to reaction in a DAB solution (3,3′-diaminobenzidine tetrahydrochloride (10 mg), distilled water (1 ml), 0.2 M PBS (50 ml) and 30% H2O2 (100 μl)), dried and then subjected to quantification of intensity of bands using Scion Image (free software: Scion). The ratio of the band intensity of adiponectin relative to the band intensity of β-actin was calculated for the samples.

Oc1cc2c(cc1C1OCC3C(c4ccc5c(c4)OCO5)OCC13)OCO2 (stereo not shown) [sesaminol]
GPDH activity of cells after differentiation induction (FIG. 2, percent of control) (3T3-L1 cells [1]): decreased with an increase in the amount of sesaminol added
toxicity to and effect on viability of cell lines [2]: not toxic to and did not affect viability
size of lipid droplets in adipocytes (FIG. 3) (3T3-L1 adipocytes [3]): tend to decrease the size compared to the control
TG accumulation in adipocytes (FIG. 4, percent of control) (3T3-L1 adipocytes [3]; * p<0.05 vs control): decreased TG accumulation
cells that did not contain stained lipid droplets (Oil red 0, FIG. 1) (3T3-L1 cells [4]; sesaminol 0.5 μg/ml added on Days 0, 2, 4 and 6 of differentiation induction): many cells
cells that did not contain stained lipid droplets (Oil red 0, FIG. 1) (3T3-L1 cells [4]; sesaminol 1.0 μg/ml added on Days 0, 2, 4 and 6 of differentiation induction): almost all the cells
adiponectin expression level (band intensity ratio adiponectin/β-actin, control = 1, FIG. 5) (3T3-L1 adipocytes [5]): significantly enhanced with an increase in the amount of sesaminol added
